Earlier results in patent US11122828B2, “Microbial compositions comprising ellagitannin and methods of use” (MarvelBiome, Inc., priority 2018, dated 2021).
Like-named read-outs stand apart in the source and are kept apart here. Blank lines part the entries; values can stand above or below the molecule they belong to.

Tests used:
[1] = plasma concentration up to micromolar (μM) levels
colon cancer cells = details: in vitro
[2] = test system: inflammatory markers including inducible nitric oxide synthase, cycloxygenase-2 (COX-2), prostaglandin E synthase and prostaglandin E2; details: rat colitis model

Molecule: O=c1oc2cc(O)ccc2c2ccc(O)cc12 [urolithin A, 3,8-dihydroxyurolithin]
toxic effects in vivo [1]: without any apparent toxic effects | proliferation of colon cancer cells (colon cancer cells): inhibit proliferation | inflammatory markers in colonic mucosa [2]: decrease inflammatory markers

bioavailability (in vivo): 0.3%
Molecule: anthocyanins

bioavailability (estimated, phenols): 43%
Molecule: isoflavones
